The record followed here is patent publication US20090093468A1, “Peptide Deformylase Inhibitors” (priority 2004, published 2009).

Assay [1] concerns the target bacterial PDF (peptide deformylase), enzyme from E. coli (Escherichia coli, UniProt P0A6K3). As to the kind of experiment: Bacterial peptide deformylase (PDF) assay, enzyme from E. coli. The format is biochemical. The method, then: (§1) The IC50 value of a compound of the invention as a bacterial PDF inhibitor was determined using the following assay.
(§2) Assay buffer (pH 7.2): 0.1 M MOPS pH was adjusted to 7.2 with NaOH, containing 0.25 M NaCl, 100 microgram/mL catalase and 1 mg/mL BSA.
(§3) Enzyme mix: 670 ng/mL of enzyme (to finally have 50 ng of enzyme per well).
(§4) Substrate: 10 mM f-Met-Ala was made up from 200 mM f-Met-Ala in methanol with assay buffer.
(§5) TNBS solution: Freshly dilute 1 M TNBS stock solution to 1:10 with water.
(§6) Buffer C: 0.5 M borate buffer adjusted to pH 9.5 with NaOH.
(§7) Buffer D: 0.2 ml of freshly prepared 0.5 M Na2SO3 was mixed with 9.8 mL of 0.5M NaH2PO4.
(§8) Inhibitor solution: 2 mM Sodium 4-(hydroxymercurio) benzoate in assay buffer.
(§9) The assay was performed in a 96 Microtiter plate containing test compound. To each well containing test compound mix was added 75 microliter of enzyme mix from E. coli followed, by the addition of 25 microliter of substrate mix. The resulting mix was incubated for 30 minutes at room temperature with shaking. TNBS solution (50 microliter/well) was added and the resulting mixture was incubated for 15 minutes under shaking. Buffer C was then added (20 microliter/well). After incubating at room temperature for 15 minutes under shaking, buffer D was added (50 microliter/well). The optical […] was then measured at 420 nm, thereby determining the IC50 value.

In assay [2] the target is T1, bacterial PDF (peptide deformylase), enzyme from S. aureus (Staphylococcus aureus, UniProt P68826).
T1 sequence (P68826 1-183): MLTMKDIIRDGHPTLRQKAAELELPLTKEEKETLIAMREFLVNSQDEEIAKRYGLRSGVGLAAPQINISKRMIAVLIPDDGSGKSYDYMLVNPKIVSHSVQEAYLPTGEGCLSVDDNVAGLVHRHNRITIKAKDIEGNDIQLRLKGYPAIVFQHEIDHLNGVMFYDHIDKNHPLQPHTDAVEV
As to the kind of experiment: Bacterial peptide deformylase (PDF) assay, enzyme from S. aureus. The format is biochemical. The method, then: as §1, §2, §3, §4, §5, §6, §7, §8, §9
The assay was repeated using enzyme mix from S. aureus.

[3] abbreviates: PDF enzyme from S. aureus, substrate f-Met-Ala, TNBS readout at 420 nm, read-out: IC50 (enzyme from S. aureus).

Like-named read-outs stand apart in the source and are kept apart here.

What is called IC50 is the concentration that inhibits the measured activity by half.

Sequence of bacterial PDF (peptide deformylase), enzyme from E. coli (P0A6K3 whole entry): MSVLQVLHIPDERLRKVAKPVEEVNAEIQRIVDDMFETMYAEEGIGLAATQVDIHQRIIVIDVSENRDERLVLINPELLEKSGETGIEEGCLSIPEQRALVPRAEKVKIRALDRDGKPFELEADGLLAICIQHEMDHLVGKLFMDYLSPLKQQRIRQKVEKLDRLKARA

For `CCN1CC(CC(=O)NO)S(=O)(=O)c2ccc(C(=O)NCc3ccc(OC)cc3)cc21` (stereo not drawn) [Example 23, 4-Ethyl-2-hydroxycarbamoylmethyl-1,1-dioxo-1,2,3,4-tetrahydro-1λ^6-benzo[1,4]thiazine-6-carboxylic acid 4-methoxy-benzylamide], the values for the IC50 in assay [1] and in assay [2] (setting [3]) were 4.9 µM and 13.1 µM, respectively.
The matching figures for `CCN1CC(CC(=O)NO)S(=O)(=O)c2ccc(C(=O)NCc3cccc(C(F)(F)F)c3)cc21` (stereo not drawn) [Example 24, 4-Ethyl-2-hydroxycarbamoylmethyl-1,1-dioxo-1,2,3,4-tetrahydro-1λ^6-benzo[1,4]thiazine-6-carboxylic acid 3-trifluoromethyl-benzylamide]: 2 µM and 8.3 µM.
In the case of `CCN1CC(CC(=O)NO)S(=O)(=O)c2ccc(C(=O)NCc3ccc(OC(F)(F)F)cc3)cc21` (stereo not drawn) [Example 26, 4-Ethyl-2-hydroxycarbamoylmethyl-1,1-dioxo-1,2,3,4-tetrahydro-1λ^6-benzo[1,4]thiazine-6-carboxylic acid 4-trifluoromethoxybenzylamide], the IC50 in assay [1] worked out at 1.1 µM; in assay [2] (setting [3]), 5 µM.
With `CCN1CC(CC(=O)NO)S(=O)(=O)c2ccc(C(=O)NCc3ccc(N(C)C)cc3)cc21` (stereo not drawn) [Example 27, 4-Ethyl-2-hydroxycarbamoylmethyl-1,1-dioxo-1,2,3,4-tetrahydro-1λ^6-benzo[1,4]thiazine-6-carboxylic acid 4-dimethylaminobenzylamide], the IC50 in assay [1] was 9.3 µM; in assay [2] (setting [3]) it was 18.2 µM.
Take `CCN1CC(CC(=O)NO)S(=O)(=O)c2ccc(C(=O)NCc3ccncc3)cc21` (stereo not drawn) [Example 28, 4-Ethyl-2-hydroxycarbamoylmethyl-1,1-dioxo-1,2,3,4-tetrahydro-1λ^6-benzo[1,4]thiazine-6-carboxylic acid (pyridin-4-ylmethyl)-amide]: the IC50 in assay [1] is over 200 µM; in assay [2] (setting [3]), 70.5 µM.
In the same order, the values of `CCN1CC(CC(=O)NO)S(=O)(=O)c2ccc(C(=O)NCc3cccs3)cc21` (stereo not drawn) [Example 29, 4-Ethyl-2-hydroxycarbamoylmethyl-1,1-dioxo-1,2,3,4-tetrahydro-1λ^6-benzo[1,4]thiazine-6-carboxylic acid (thiophen-2-ylmethyl)-amide] are 9.5 µM and 3.4 µM.
As for `CCN1CC(CC(=O)NO)S(=O)(=O)c2ccc(C(=O)Nc3cc[nH]n3)cc21` (stereo not drawn) [Example 30, 4-Ethyl-2-hydroxycarbamoylmethyl-1,1-dioxo-1,2,3,4-tetrahydro-1λ^6-benzo[1,4]thiazine-6-carboxylic acid (1H-pyrazol-3-yl)-amide], the IC50 in assay [1] turned out to be 11.5 µM; in assay [2] (setting [3]), 30.8 µM.
Consider `CCN1CC(CC(=O)NO)S(=O)(=O)c2ccc(C(=O)Nc3nccs3)cc21` (stereo not drawn) [Example 31, 4-Ethyl-2-hydroxycarbamoylmethyl-1,1-dioxo-1,2,3,4-tetrahydro-1λ^6-benzo[1,4]thiazine-6-carboxylic acid thiazol-2-ylamide], for which the IC50 in assay [1] amounted to 12.3 µM; in assay [2] (setting [3]) it was 20.8 µM.
The matching figures for `CCN1CC(CC(=O)NO)S(=O)(=O)c2ccc(C(=O)N3CCN(C)CC3)cc21` (stereo not drawn) [Example 32, 2-[4-Ethyl-6-(4-methyl-piperazine-1-carbonyl)-1,1-dioxo-1,2,3,4-tetrahydro-1λ^6-benzo[1,4]thiazin-2-yl]-N-hydroxy-acetamide]: over 200 µM and 128 µM.
In the same order, the values of `CCN1CC(CC(=O)NO)S(=O)(=O)c2ccc(C(=O)Nc3cc(-c4cccs4)n[nH]3)cc21` (stereo not drawn) [Example 33, 4-Ethyl-2-hydroxycarbamoylmethyl-1,1-dioxo-1,2,3,4-tetrahydro-1λ^6-benzo[1,4]thiazine-6-carboxylic acid (5-thiophen-2-yl-2H-pyrazol-3-yl)-amide] are 0.9 µM and 3 µM.
In the case of `CCN1CC(CC(=O)NO)S(=O)(=O)c2ccc(C(=O)NC3CC4CCC(C3)N4C)cc21` (stereo not drawn) [Example 34], the IC50 in assay [1] (PDF enzyme from E. coli, substrate f-Met-Ala, TNBS readout at 420 nm, read-out: IC50 (enzyme from E. coli)) is 13.8 µM; in assay [2], 6 µM.
Regarding `O=C(CC1CN(CC2CC2)c2ccccc2S1(=O)=O)NO` (stereo not drawn) [Example 35], the IC50 in assay [1] was found to be 2.1 µM; in assay [2] (setting [3]) it was 4.8 µM.
The matching figures for `O=C(CC1CN(CC2CCC2)c2ccccc2S1(=O)=O)NO` (stereo not drawn) [Example 36, 2-(4-Cyclobutylmethyl-1,1-dioxo-1,2,3,4-tetrahydro-1λ^6-benzo[1,4]thiazin-2-yl)-N-hydroxy-acetamide]: 3.3 µM and 3.8 µM.
In the case of `O=C(CC1CN(CC2CCCC2)c2ccccc2S1(=O)=O)NO` (stereo not drawn) [Example 37, 2-(4-Cyclopentylmethyl-1,1-dioxo-1,2,3,4-tetrahydro-1λ^6-benzo[1,4]thiazin-2-yl)-N-hydroxy-acetamide], the IC50 in assay [1] worked out at 11.1 µM; in assay [2] (setting [3]), 13.9 µM.
In the same order, the values of `O=C(CC1CN(CC2CCCCC2)c2ccccc2S1(=O)=O)NO` (stereo not drawn) [Example 38, 2-(4-Cyclohexylmethyl-1,1-dioxo-1,2,3,4-tetrahydro-1λ^6-benzo[1,4]thiazin-2-yl)-N-hydroxy-acetamide] are 33.2 µM and 18.1 µM.
